Where two headings read alike, the source gives them in different places.
What was measured:
TNFα = assay: Cot Monocyte TNFα Cell Based Assay
Procedure: The cell suspension was then plated at a density of 5,000 cells/well onto black 384 well Greiner clear bottom plates. Plates were pre-spotted with test compounds and serially diluted in DMSO where 200 nL/well were delivered using the Echo 550 acoustic liquid dispenser (Labcyte®) for a final DMSO concentration of 0.5%. Plated cells were treated with compound for 1 hour at 37° C. Cells were then stimulated with 50 pg/ml of LPS (Sigma) excluding outside columns of plate used for unstimulated cell control wells. Cells were incubated for an additional 4 hours at 37° C. Cells were then spun out of the media and 5 μl of sample were taken and analyzed for total TNFα content using the TR-FRET Human TNFα detection system (CisBio). This system utilizes two labeled antibodies (cryptate and XL665) that bind to two different epitopes of the TNFα molecule and produce FRET signal proportional to the concentration of TNFα in the sample. […] Plates were covered with clear seals and incubated at room temp overnight. […] Percent of control was calculated as follows: % Control=100×(RatioSample−Ratio0% Stimulation)/(Ratio100% Stimulation−Ratio0% Stimulation) where unstimulated cells (0% stimulation) were the negative control and stimulated cells (100% stimulation) were used as the positive control.

Human Cot = Human Cot (Homo sapiens (Human), UniProt P41279); assay: High Throughput Cot Biochemical Assay
[1] = Homo sapiens, Monocyte, read-out: EC50 TNF, LPS-stimulated human monocytes, TNFα TR-FRET
[2] = IC50 HTRF, Cot HTRF (TR-FRET KinEASE) biochemical assay, 400 μM ATP
[3] = Homo sapiens, Monocyte, read-out: EC50 TNF, LPS-stimulated human monocytes, TNFα
[4] = IC50 HTRF, Cot HTRF (TR-FRET) biochemical assay

Sequence of Human Cot (P41279 30-397): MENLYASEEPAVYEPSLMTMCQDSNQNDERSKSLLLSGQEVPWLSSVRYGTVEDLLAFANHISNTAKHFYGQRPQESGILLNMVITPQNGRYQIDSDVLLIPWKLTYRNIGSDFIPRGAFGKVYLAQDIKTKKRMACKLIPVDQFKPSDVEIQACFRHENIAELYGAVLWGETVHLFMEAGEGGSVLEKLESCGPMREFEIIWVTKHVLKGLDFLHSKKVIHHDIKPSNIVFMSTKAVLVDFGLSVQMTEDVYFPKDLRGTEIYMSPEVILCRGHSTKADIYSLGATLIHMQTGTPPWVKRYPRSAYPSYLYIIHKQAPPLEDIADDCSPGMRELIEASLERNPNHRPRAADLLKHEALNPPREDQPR

SMILES	EC50 (TNFα; [3]) [nM]	IC50 (Human Cot; [4]) [nM]	also measured
COc1nccc2c([C@H](Nc3cc(C#N)c4ncc(C#N)c(NCC(C)(C)C)c4c3)c3cn([C@@H](C)CF)nn3)cccc12 [Example 824, 6-(((S)-(1-((S)-1-fluoropropan-2-yl)-1H-1,2,3-triazol-4-yl)(1-methoxylsoquinolin-5-yl)methyl)amino)-4-(neopentylamino)quinoline-3,8-dicarbonitrile]	–	–	EC50 (TNFα; read-out: EC50 TNF, LPS-stimulated human monocytes, TNFα TR-FRET): 59 nM; IC50 (Human Cot; read-out: IC50 HTRF, Cot HTRF (TR-FRET KinEASE) biochemical assay, 400 μM ATP): 5 nM
Cc1nc(F)ccc1[C@H](Nc1cc(C#N)c2ncc(C#N)c(NCC(C)(C)C)c2c1)c1cn(CC2(C)CC2)nn1 [Example 866, (S)-6-(((6-fluoro-2-methylpyridin-3-yl)(1-((1-methylcyclopropyl)methyl)-1H-1,2,3-triazol-4-yl)methyl)amino)-4-(neopentylamino)quinoline-3,8-dicarbonitrile]	–	–	EC50 (TNFα; [1]): 18 nM; IC50 (Human Cot; [2]): 2 nM
Cc1nc(Cl)ccc1[C@H](Nc1cc(Cl)c2ncc(C#N)c(Nc3ccc(F)c(Cl)c3)c2c1)c1cn(C(C)C)nn1 [Example 294, (S)-8-chloro-6-(((6-chloro-2-methylpyridin-3-yl)(1-isopropyl-1H-1,2,3-triazol-4-yl)methyl)amino)-4-((3-chloro-4-fluorophenyl)amino)quinoline-3-carbonitrile]	166	9	–
N#Cc1cnc2c(Cl)cc(N[C@@H](C3=CCOCC3)c3cn(C4COC4)nn3)cc2c1Nc1ccc(Cl)c(Cl)c1F [Example 210, (S)-8-chloro-4-((3,4-dichloro-2-fluorophenyl)amino)-6-(((3,6-dihydro-2H-pyran-4-yl)(1-(oxetan-3-yl)-1H-1,2,3-triazol-4-yl)methyl)amino)quinoline-3-carbonitrile]	424	10	–
Cc1nc(F)ccc1[C@H](Nc1cc(Cl)c2ncc(C#N)c(NCC(C)(C)C)c2c1)c1nnn(C2(C(F)F)CC2)c1F [Example 960, (S)-8-chloro-6-(((1-(1-(difluoromethyl)cyclopropyl)-5-fluoro-1H-1,2,3-triazol-4-yl)(6-fluoro-2-methylpyridin-3-yl)methyl)amino)-4-(neopentylamino)quinoline-3-carbonitrile]	–	–	EC50 (TNFα; [1]): 55 nM; IC50 (Human Cot; [2]): 7 nM
COc1c([C@@H](Nc2cc(Cl)c3ncc(C#N)c(NCC(C)(C)C)c3c2)c2ccc(F)nc2C)nnn1C [Example 969, (S)-8-chloro-6-(((6-fluoro-2-methylpyridin-3-yl)(5-methoxy-1-methyl-1H-1,2,3-triazol-4-yl)methyl)amino)-4-(neopentylamino)quinoline-3-carbonitrile]	–	–	EC50 (TNFα; [1]): 258 nM; IC50 (Human Cot; [2]): 8 nM
N#Cc1cnc2c(Cl)cc(N[C@@H](c3cncc(Cl)c3)c3cn(C4CC4)nn3)cc2c1Nc1cnc(F)c(F)c1 [Example 146, (S)-8-chloro-6-(((5-chloropyridin-3-yl)(1-cyclopropyl-1H-1,2,3-triazol-4-yl)methyl)amino)-4-((5,6-difluoropyridin-3-yl)amino)-quinoline-3-carbonitrile]	370	10	–
Cc1nc(F)ccc1[C@H](Nc1cc(C#N)c2ncc(C#N)c(NCC(C)(C)C)c2c1)c1cn(C2(C(F)(F)F)CC2)nn1 [Example 471, (S)-6-(((6-fluoro-2-methylpyridin-3-yl)(1-(1-(trifluoromethyl)cyclopropyl)-1H-1,2,3-triazol-4-yl)methyl)amino)-4-(neopentyl-amino)quinoline-3,8-dicarbonitrile]	45	3	–
CC(C)(C)CNc1c(C#N)cnc2c(Cl)cc(N[C@H](c3cn(C4(C(N)=O)CC4)nn3)c3cccc4ncccc34)cc12 [Example 565, (S)-1-(4-(((8-chloro-3-cyano-4-(neopentyl-amino)quinolin-6-yl)amino)(quinolin-5-yl)methyl)-1H-1,2,3-triazol-1-yl)cyclo-propane-1-carboxamide]	306	2	–
CCN1Cc2ccc([C@H](Nc3cc(Cl)c4ncc(C#N)c(Nc5ccc(F)c(Cl)c5)c4c3)c3cn(C4CCN(C(C)(C)C)CC4)nn3)cc2C1 [Example 58, (S)-6-(((1-(1-(tert-butyl)piperidin-4-yl)-1H-1,2,3-triazol-4-yl)(2-ethylisoindolin-5-yl)methyl)amino)-8-chloro-4-((3-chloro-4-fluorophenyl)amino)quinoline-3-carbonitrile]	2980	72	–
CCN1CCC(n2cc([C@@H](Nc3cc(Cl)c4ncc(C#N)c(Nc5ccc(F)c(Cl)c5)c4c3)c3cc(C#N)cs3)nn2)CC1 [Example 372, (R)-8-chloro-4-((3-chloro-4-fluorophenyl)amino)-6-(((4-cyanothiophen-2-yl)(1-(1-ethylpiperidin-4-yl)-1H-1,2,3-triazol-4-yl)methyl)-amino)quinoline-3-carbonitrile]	81	2	–
[2H]C(Nc1cc(Cl)c2ncc(C#N)c(N[C@H](CC)c3ccccc3)c2c1)(c1cn(C2CC2)nn1)c1ccc(Cl)nc1C (stereo partly drawn) [Example 122, 8-chloro-6-(((6-chloro-2-methylpyridin-3-yl)(1-cyclopropyl-1H-1,2,3-triazol-4-yl)methyl-d)amino)-4-(((R)-1-phenylpropyl)amino)quinoline-3-carbonitrile]	240	6	–
Cc1nc(F)ccc1[C@H](Nc1cc(Cl)c2ncc(C#N)c(NCC(C)(C)c3ccccc3)c2c1)c1cn(C2(C(F)(F)F)CC2)nn1 [Example 612, (S)-8-chloro-6-(((6-fluoro-2-methylpyridin-3-yl)(1-(1-(trifluoromethyl)cyclopropyl)-1H-1,2,3-triazol-4-yl)methyl)amino)-4-((2-methyl-2-phenylpropyl)amino)quinoline-3-carbonitrile]	171	11	–
CC(C)(C)N1CCC(n2cc([C@@H](Nc3cc(Cl)c4ncc(C#N)c(Nc5ccc(F)c(Cl)c5)c4c3)c3cscn3)nn2)CC1 [Example 353, (S)-6-(((1-(1-(tert-butyl)piperidin-4-yl)-1H-1,2,3-triazol-4-yl)(thiazol-4-yl)methyl)amino)-8-chloro-4-((3-chloro-4-fluorophenyl)amino)-quinoline-3-carbonitrile]	184	4	–
COC[C@H](Nc1c(C#N)cnc2c(Cl)cc(N[C@@H](c3cccnc3)c3c[nH]nn3)cc12)c1ccccc1 [Example 203, 8-chloro-4-(((R)-2-methoxy-1-phenylethyl)amino)-6-(((S)-pyridin-3-yl(1H-1,2,3-triazol-4-yl)methyl)amino)quinoline-3-carbonitrile]	9090	6920	–
CC1(n2cc([C@@H](Nc3cc(Cl)c4ncc(C#N)c(NCC(C)(C)C(F)(F)F)c4c3)c3ccc(F)c4ncccc34)nn2)CC1 [Example 919, (S)-8-chloro-6-(((8-fluoroquinolin-5-yl)(1-(1-methylcyclopropyl)-1H-1,2,3-triazol-4-yl)methyl)amino)-4-((3,3,3-trifluoro-2,2-dimethylpropyl)amino)quinoline-3-carbonitrile]	–	–	EC50 (TNFα; [1]): 49 nM; IC50 (Human Cot; [2]): 2 nM
CC(C)(C)CNc1c(C#N)cnc2c(C#N)cc(N[C@H](c3cn(C4(C(F)F)CC4)nn3)c3cccc4ncccc34)cc12 [Example 550, (S)-6-(((1-(1-(difluoromethyl)cyclopropyl)-1H-1,2,3-triazol-4-yl)(quinolin-5-yl)methyl)amino)-4-(neopentylamino)-quinoline-3,8-dicarbonitrile]	29	2	–

— patent publication US11066414B2, “Cot modulators and methods of use thereof” (Gilead Sciences, Inc., priority 2015, dated 2021)
